From PubChem BioAssay (NCI) come the findings set out here.

Test systems include HT29 colon; NCI-H522 lung; OVCAR-3 ovarian; HS 578T breast; UACC-62 melanoma; K-562 leukemia; SF-268 CNS; NCI-H23 lung; OVCAR-8 ovarian; UACC-257 melanoma.
Assay in all cases: NCI anticancer screen, dose series, 48 h

Each structure is given as a SMILES string.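 Exposure lasted 48 hours, with cells grown in 96-well plates and compounds tested at five concentrations. Abbreviation: GI50, concentration required for 50% inhibition of growth. TGI: concentration producing complete growth inhibition.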

As for `COC(=O)[C@H](CC(C)C)Nc1c(O)c2c(c(O)c1Cl)C(=O)C=CC2=O`, the TGI was 9.41 µM with HT29 colon; above 10 µM in the experiment with NCI-H522 lung; 6 µM with OVCAR-3 ovarian; above 10 µM in the experiment on HS 578T breast; above 10 µM in the experiment on UACC-62 melanoma; above 10 µM in the experiment on K-562 leukemia. Besides, the TGI in the experiment on SF-268 CNS, in the experiment on NCI-H23 lung, with OVCAR-8 ovarian and with UACC-257 melanoma was above 10 µM throughout.

In the case of `CCOC(=O)c1[nH]cc(C)c1-c1ccc2c(-c3ccccc3)nc3ccccc3n12`, the TGI with HT29 colon is 11.9 µM; in the experiment with NCI-H522 lung it was 4.79 µM; in the experiment on OVCAR-3 ovarian, 18.5 µM; with HS 578T breast, 6.5 µM; in the experiment with UACC-62 melanoma it was 10.8 µM; in the experiment with K-562 leukemia, 9.13 µM. In addition, the TGI in the experiment with SF-268 CNS is 17.1 µM; with NCI-H23 lung, 23.3 µM; in the experiment with OVCAR-8 ovarian, 16.7 µM; in the experiment with UACC-257 melanoma, 24.7 µM.

On to `CN1CCN(Cc2ccc(NC(=O)c3cccc(C#Cc4cnc(N)c5ncccc45)c3F)cc2C(F)(F)F)CC1`, for which the GI50 was 0.677 µM with HT29 colon; 0.587 µM with NCI-H522 lung; 5.07 µM in the experiment with OVCAR-3 ovarian; 1.29 µM with HS 578T breast; 2.84 µM with UACC-62 melanoma; 0.005 µM with K-562 leukemia. The GI50 in the experiment on SF-268 CNS is 5.13 µM; in the experiment on NCI-H23 lung, 3.99 µM; with OVCAR-8 ovarian it was 0.828 µM; in the experiment with UACC-257 melanoma it was 0.828 µM. The TGI amounted to 1.53 µM in the experiment on HT29 colon; 1.47 µM in the experiment on NCI-H522 lung; 12 µM in the experiment on OVCAR-3 ovarian; 8.66 µM with HS 578T breast; 13.1 µM in the experiment with UACC-62 melanoma; 0.733 µM in the experiment with K-562 leukemia. Further, the TGI with SF-268 CNS was found to be 14.7 µM; with NCI-H23 lung it was 16.4 µM; in the experiment on OVCAR-8 ovarian it was 1.78 µM; in the experiment on UACC-257 melanoma, 1.65 µM.

As to `CCOP(=O)(OCC)/C(C#N)=C/c1cnc[nH]1`, the TGI with HT29 colon, with NCI-H522 lung, in the experiment with OVCAR-3 ovarian, in the experiment with HS 578T breast, in the experiment with UACC-62 melanoma and with K-562 leukemia was above 100 µM each time. The TGI in the experiment with SF-268 CNS, with NCI-H23 lung, in the experiment with OVCAR-8 ovarian and in the experiment with UACC-257 melanoma was above 100 µM in each case.

For the compound `CCOc1cc2oc(C)cc(=O)c2c(OC)c1C=Nc1ccc(Cn2c(C)nc3ccccc32)cc1`, the TGI in the experiment with HT29 colon, in the experiment with NCI-H522 lung, with OVCAR-3 ovarian, in the experiment with HS 578T breast, in the experiment with UACC-62 melanoma and in the experiment with K-562 leukemia was above 100 µM throughout. Also, the TGI in the experiment with SF-268 CNS, with NCI-H23 lung, with OVCAR-8 ovarian and with UACC-257 melanoma was above 100 µM each time.

On to `CC(=O)C1=C(C)N(c2ccc(C)cc2)C2(O)C3=C(C(=O)c4ccccc4C3=O)C(O)=CC12Cl` (stereo not given), for which the TGI with HT29 colon is 60.1 µM; with NCI-H522 lung, 33.2 µM; in the experiment on OVCAR-3 ovarian it was 45 µM; in the experiment on HS 578T breast, above 100 µM; with UACC-62 melanoma, 26.5 µM; in the experiment with K-562 leukemia, above 100 µM. In addition, the TGI in the experiment with SF-268 CNS was above 100 µM; with NCI-H23 lung, 34 µM; with OVCAR-8 ovarian it was 53.4 µM; in the experiment with UACC-257 melanoma, 55.6 µM.

In the case of `CSc1ncc2c(n1)sc1c(=O)n(-c3ccccc3)cnc12`, the TGI in the experiment on HT29 colon, in the experiment on NCI-H522 lung, in the experiment with OVCAR-3 ovarian, in the experiment with HS 578T breast, with UACC-62 melanoma and in the experiment with K-562 leukemia was above 100 µM each time. The TGI in the experiment with SF-268 CNS, in the experiment with NCI-H23 lung, in the experiment with OVCAR-8 ovarian and in the experiment with UACC-257 melanoma was above 100 µM throughout.

As to `COc1cc2c(cc1OCCCCOc1cc3c(cc1OC)C(=O)N1CCC[C@H]1C(=O)N3)N=C[C@@H]1CCCN1C2=O`, the TGI was found to be 43.2 µM in the experiment on HT29 colon; 3.24 µM with NCI-H522 lung; 25.7 µM in the experiment on OVCAR-3 ovarian; 27.6 µM in the experiment on HS 578T breast; 10.3 µM with UACC-62 melanoma; 6.88 µM in the experiment on K-562 leukemia. For the same compound, the TGI is 14.8 µM in the experiment on SF-268 CNS, 25.4 µM in the experiment with NCI-H23 lung, 27.8 µM in the experiment with OVCAR-8 ovarian and 29.3 µM in the experiment with UACC-257 melanoma.

For `CCN(CC)CCNc1ccc2nnn3c4ccc(O)cc4c(=O)c1c23`, the TGI in the experiment with HT29 colon turned out to be 15 µM; in the experiment on NCI-H522 lung, 20.9 µM; with OVCAR-3 ovarian, 22.7 µM; in the experiment on HS 578T breast, 26.6 µM; in the experiment with UACC-62 melanoma it was 22.1 µM; with K-562 leukemia it was 30.6 µM. Moreover, the TGI in the experiment with SF-268 CNS worked out at 21.7 µM; in the experiment with NCI-H23 lung it was 19.7 µM; in the experiment on OVCAR-8 ovarian it was 17.5 µM; with UACC-257 melanoma it was 24.9 µM.

Take `O=C1CC(=O)NC(=NNS(=O)(=O)c2ccccc2)N1`: the TGI in the experiment on HT29 colon, with NCI-H522 lung, in the experiment on OVCAR-3 ovarian, in the experiment with HS 578T breast, with UACC-62 melanoma and with K-562 leukemia was above 100 µM in each case. Also, the TGI in the experiment with SF-268 CNS, in the experiment with NCI-H23 lung, with OVCAR-8 ovarian and in the experiment with UACC-257 melanoma was above 100 µM in each case.

As for `Cc1ccc2nc(C=Nc3ccc(Cl)cc3)cc(C)c2c1`, the TGI in the experiment with HT29 colon was 37.8 µM; with NCI-H522 lung it was 26.6 µM; in the experiment on OVCAR-3 ovarian, 32.2 µM; in the experiment with HS 578T breast, above 69.4 µM; with UACC-62 melanoma, 40 µM; in the experiment with K-562 leukemia, above 39.5 µM. Besides, the TGI was 59.2 µM in the experiment with SF-268 CNS, 38 µM with NCI-H23 lung, 23.3 µM with OVCAR-8 ovarian and 36.5 µM in the experiment on UACC-257 melanoma.

In the case of `Cc1cccc(-c2cc(=O)c3c(C)cc(C)nc3[nH]2)c1`, the TGI with HT29 colon is 19.1 µM; with NCI-H522 lung it was 2.85 µM; in the experiment with OVCAR-3 ovarian, 4.6 µM; with HS 578T breast it was above 20.3 µM; with UACC-62 melanoma it was above 100 µM; in the experiment with K-562 leukemia, 32.3 µM. Further, the TGI in the experiment on SF-268 CNS was above 100 µM; in the experiment on NCI-H23 lung, 40.4 µM; with OVCAR-8 ovarian, above 100 µM; in the experiment on UACC-257 melanoma, above 100 µM.
